Assay results reported in the Deep4Chem optical property database.

Test: solvent given as SMILES

Structure (SMILES): CN(C)c1ccc(C2=CC3=C(c4ccc(C=C(C#N)C#N)cc4)[C@H]4c5ccccc5[C@]3(S2)c2ccccc24)cc1
- emission maximum (in ClCCl): 735 nm

Structure (SMILES): Cc1cc(N2c3ccccc3C3(c4ccccc4-c4ccccc43)c3ccccc32)c(C)cc1-c1nc(-c2ccccc2)nc(-c2ccccc2)n1
- emission maximum (in Cc1ccccc1): 486 nm

Structure (SMILES): Nc1ccc2c3c(cccc13)C(=O)c1ccccc1-2
- emission maximum (in CC#N): 626.17 nm
- emission maximum (in CC(C)=O): 610.13 nm
- emission maximum (in CC(C)O): 664.89 nm
- emission maximum (in CCCCOCCCC): 570.13 nm
- emission maximum (in CCOC(C)=O): 592.07 nm
- emission maximum (in CCOCC): 585.14 nm
- emission maximum (in CO): 667.11 nm
- emission maximum (in Cc1ccccc1): 569.15 nm
- emission maximum (in Clc1ccccc1): 579.04 nm
- emission maximum (in N#Cc1ccccc1): 610.13 nm
- emission maximum (in O=C1CCCCC1): 610.13 nm

Structure (SMILES): c1cc(-c2ccc3sc4ccccc4c3c2)cc(-c2cc(-c3cccc(-c4ccc5sc6ccccc6c5c4)c3)ncn2)c1
- emission maximum (in ClCCl): 411 nm

Structure (SMILES): c1ccc(-c2nn(-c3ccccc3)c3nc4ccc(N(c5ccccc5)c5cccc6ccccc56)cc4cc23)cc1
- emission maximum (in C1CCCCC1): 484.73 nm
- emission maximum (in C1CCOC1): 516 nm
- emission maximum (in CC#N): 555.25 nm
- emission maximum (in CC(C)=O): 538.21 nm
- emission maximum (in CCCCCl): 509.68 nm
- emission maximum (in CCCCOCCCC): 494.8 nm
- emission maximum (in CN(C)C=O): 553.1 nm

Structure (SMILES): CCCCCCc1cc2c3c(c1)c(=C1c4ccccc4S(=O)(=O)c4ccccc41)c1cc(CCCCCC)cc4c1N3c1c(cc(CCCCCC)cc1c4=C1c3ccccc3S(=O)(=O)c3ccccc31)c2=C1c2ccccc2S(=O)(=O)c2ccccc21
- emission maximum (in ClCCl): 528 nm

Structure (SMILES): CN(C)c1ccc(C2=CC3=C(c4ccc(C#N)cc4)[C@H]4c5ccccc5[C@]3(S2)c2ccccc24)cc1
- emission maximum (in ClCCl): 599 nm

Structure (SMILES): O=C(O)c1cc(O)c(O)c(O)c1
- emission maximum (in O): 341 nm

Structure (SMILES): COC(=O)c1nc(-c2ccccc2)oc1C
- emission maximum (in C1CCCCC1): 297 nm
- emission maximum (in CC#N): 322 nm
- emission maximum (in CCO): 324 nm
- emission maximum (in CCOC(C)=O): 318 nm
- emission maximum (in O): 328 nm

Structure (SMILES): COc1ccc(OC)c(-c2[nH]c(=O)n3c2-c2ccccc2C3=O)c1
- emission maximum (in CC#N): 466 nm
- emission maximum (in CO): 484 nm
- emission maximum (in ClCCl): 462 nm

Structure (SMILES): CC1(C)C(/C=C/C2=C(Cl)C(=C/C=C3/N(CCCS(=O)(=O)[O-])c4ccccc4C3(C)C)/CCC2)=[N+](CCCS(=O)(=O)[O-])c2ccccc21
- emission maximum (in CO): 802 nm

Structure (SMILES): Oc1ccc2ccccc2c1-c1nc2c(c3c1-c1ccccc1CC3)-c1ccccc1CC2
- emission maximum (in ClCCl): 405 nm

Structure (SMILES): C=CCNc1ccc2ccc3oc4cc(=[N+]5CCCC5)ccc-4nc3c2c1
- emission maximum (in CC#N): 635 nm
- emission maximum (in CCO): 632 nm
- emission maximum (in ClCCl): 622 nm
- emission maximum (in O): 650 nm

Structure (SMILES): Cc1ccc(-c2nc(-c3cccc(O)c3)[nH]c2-c2ccc(C)cc2)cc1
- emission maximum (in CO): 399 nm

Structure (SMILES): CCCCCCCCCCCCN1C(=O)c2c(c3ccc4cc(-c5ccc(OC)cc5)c(OC)cc4c3c3c2ccc2cc(-c4ccc(OC)cc4)c(OC)cc23)C1=O
- emission maximum (in ClCCl): 532 nm

Structure (SMILES): O=Cc1ccc(-c2ccc(-c3nc4ccccc4s3)c(O)c2)o1
- emission maximum (in CCO): 530 nm
- emission maximum (in ClCCl): 526 nm
- emission maximum (in O): 563 nm

Structure (SMILES): CC(C)(C)c1ccc2oc3nc4oc5ccc(-n6c7ccccc7c7cc(-n8c9ccccc9c9ccccc98)ccc76)cc5c4cc3c2c1
- emission maximum (in ClC(Cl)Cl): 446 nm

Structure (SMILES): F[B-]1(F)OC(C#Cc2ccccc2)=CC(c2ccccc2)=[O+]1
- emission maximum (in ClCCl): 420 nm

Structure (SMILES): c1ccc(-c2nc(-c3cccc4ccccc34)n3ccccc23)cc1
- emission maximum (in C1CCCCC1): 478 nm
- emission maximum (in CC#N): 480 nm
- emission maximum (in CO): 475 nm
- emission maximum (in ClCCl): 486 nm
- emission maximum (in O): 475 nm

Structure (SMILES): CC(C)(C)NC(=O)c1cccc2ccc3c4cc(Cl)ccc4c4ccc(Cl)cc4c3c12
- emission maximum (in ClCCl): 407 nm

Structure (SMILES): Cc1ccc(C(=O)NN2C3=C(CC4=C2CCCC4=O)C(=O)CCC3)cc1
- emission maximum (in C1CCOC1): 435 nm
- emission maximum (in CC#N): 343 nm
- emission maximum (in CC(C)=O): 368 nm
- emission maximum (in CCCCCO): 445 nm
- emission maximum (in CO): 447 nm
- emission maximum (in ClC(Cl)Cl): 438 nm
- emission maximum (in ClCCl): 435 nm

Structure (SMILES): Cn1ncc2c3c(C#N)c4c5ccccc5n(C)c4nc3ccc21
- emission maximum (in CCOC(C)=O): 478 nm

Structure (SMILES): CC(C)(C)c1cc2c3c(c1)-c1cccc4c1N(B3N1c3ccccc3Sc3cccc-2c31)c1ccccc1S4
- emission maximum (in C1CCOC1): 731 nm

Structure (SMILES): C(=C\c1nc2ccccc2[nH]1)/c1ccc(/C=C/c2nc3ccccc3[nH]2)cc1
- emission maximum (in C1CCOC1): 428 nm
- emission maximum (in CC#N): 427 nm
- emission maximum (in CC(C)=O): 427 nm
- emission maximum (in CN(C)C=O): 433 nm
- emission maximum (in CO): 422 nm
- emission maximum (in CS(C)=O): 439 nm

Structure (SMILES): CCCCN(CCCC)c1ccc(C#Cc2cc(C#Cc3ccc([N+](=O)[O-])cc3)c(C#Cc3ccc([N+](=O)[O-])cc3)cc2C#Cc2ccc(N(CCCC)CCCC)cc2)cc1
- emission maximum (in ClCCl): 563 nm

Structure (SMILES): COc1ccccc1-c1nc(-c2ccccc2)c(-c2ccccc2)[nH]1
- emission maximum (in CO): 375 nm

Structure (SMILES): CN(C)c1ccc(/C=C/C=C/c2nc3ccccc3o2)cc1
- emission maximum (in C1COCCO1): 508 nm
- emission maximum (in CC#N): 535 nm
- emission maximum (in CC(C)=O): 531 nm
- emission maximum (in CCCCCC): 474 nm
- emission maximum (in CCCCO): 525 nm
- emission maximum (in CCCO): 526 nm
- emission maximum (in CCO): 531 nm
- emission maximum (in CN(C)C=O): 538 nm
- emission maximum (in CO): 539 nm
- emission maximum (in Cc1ccccc1): 496 nm
- emission maximum (in ClC(Cl)(Cl)Cl): 491 nm
- emission maximum (in ClC(Cl)Cl): 517 nm
- emission maximum (in ClCCl): 525 nm
- emission maximum (in OCC(O)CO): 566 nm
- emission maximum (in OCCO): 562 nm
- emission maximum (in c1ccccc1): 503 nm

Structure (SMILES): COC(=O)c1ccc(/C=C2\C=C(c3ccccc3)NC2=O)cc1
- emission maximum (in C1COCCO1): 544 nm

Structure (SMILES): N#C/C(=C\c1ccc([N+](=O)[O-])cc1)c1nc(-c2ccccc2)cs1
- emission maximum (in CC#N): 552 nm

Structure (SMILES): C[Si](C)(C)[Si](C)(C)c1ccc2cc3ccccc3cc2c1
- emission maximum (in C1CCCCC1): 411 nm
- emission maximum (in CC#N): 412 nm

Structure (SMILES): Cc1cc(O)c(C(C)C)cc1/N=C/c1ccc(O)cc1
- emission maximum (in C1CCCCC1): 400 nm
- emission maximum (in C1CCOC1): 406 nm
- emission maximum (in C1COCCO1): 405 nm
- emission maximum (in CC#N): 411 nm
- emission maximum (in CC(C)(C)O): 410 nm
- emission maximum (in CC(C)O): 412 nm
- emission maximum (in CCCCCC): 399 nm
- emission maximum (in CCCCO): 414 nm
- emission maximum (in CCO): 414 nm
- emission maximum (in CCOC(C)=O): 405 nm
- emission maximum (in CN(C)C=O): 409 nm
- emission maximum (in CO): 416 nm
- emission maximum (in CS(C)=O): 415 nm
- emission maximum (in ClC(Cl)Cl): 401 nm
- emission maximum (in ClCCl): 412 nm
- emission maximum (in O): 452 nm
- emission maximum (in OCCO): 421 nm

Structure (SMILES): Cc1ccc(C2=C3C=CC([Te]c4ccccc4)=[N+]3[B-](F)(F)n3c([Te]c4ccccc4)ccc32)cc1
- emission maximum (in C1CCOC1): 659 nm

Structure (SMILES): CC1(C)C(/C=C/C2=C(Oc3ccc(CCN=C=S)cc3F)C(=C/C=C3/N(CCCS(=O)(=O)[O-])c4ccccc4C3(C)C)/CCC2)=[N+](CCCS(=O)(=O)[O-])c2ccccc21
- emission maximum (in CO): 797 nm

Structure (SMILES): Oc1ccccc1-c1nc2c3ccccc3c3ccccc3c2o1
- emission maximum (in Cc1ccccc1): 367 nm

Structure (SMILES): CCCCCCCCCCCCCCCCCCOc1ccc(C#Cc2cc3nc4c(OCCCCCCCCCCCC)cc5c6cc(OCCCCCCCCCCCC)c(OCCCCCCCCCCCC)cc6c6cc(OCCCCCCCCCCCC)c(OCCCCCCCCCCCC)cc6c5c4nc3cc2C#Cc2ccc(OCCCCCCCCCCCCCCCCCC)cc2)cc1
- emission maximum (in ClC(Cl)Cl): 660 nm

Structure (SMILES): Oc1ccc(Br)cc1-c1nc2c(c3c1-c1ccccc1CC3)-c1ccccc1CC2
- emission maximum (in ClCCl): 421 nm

Structure (SMILES): CCCCCCN1C(=O)c2cccc3c(-c4ccc(-c5cc(-c6ccc(Cl)cc6)nn5-c5ccccc5)s4)ccc(c23)C1=O
- emission maximum (in ClCCl): 519 nm

Structure (SMILES): COCCC1=Cc2nc1ccc1[nH]c(cc1CCOC)c1nc(c(OC)cc3[nH]c2cc3CCOC)C(CCOC)=C1
- emission maximum (in Cc1ccccc1): 690 nm

Structure (SMILES): CCN1C(=O)C(C2C(=O)c3c4ccccc4cc4cc5ccccc5c2c34)SC1=S (centres undefined)
- emission maximum (in C1CCOC1): 570 nm
- emission maximum (in CC#N): 593 nm
- emission maximum (in CCCCCC): 539 nm
- emission maximum (in Cc1ccccc1): 563 nm
- emission maximum (in ClCCl): 582 nm

Structure (SMILES): N#Cc1nn(-c2ccccc2C(F)(F)F)nc1N1CCCC1
- emission maximum (in CC#N): 433 nm

Structure (SMILES): Cc1cc(C)c(C)c(B(c2c(C)c(C)cc(C)c2C)c2c(C)c(C)c(N3c4ccccc4Oc4ccccc43)c(C)c2C)c1C
- emission maximum (in CC(C)(C)c1ccc(-n2c3ccc([Si](c4ccccc4)(c4ccccc4)c4ccccc4)cc3c3cc([Si](c4ccccc4)(c4ccccc4)c4ccccc4)ccc32)cc1): 478 nm

Structure (SMILES): c1ccc(-n2c(-c3ccc(-c4ccc(-c5ccc(-c6nc7c8ccccc8c8ccccc8c7n6-c6ccccc6)cc5)cc4)cc3)nc3ccccc32)cc1
- emission maximum (in C1CCOC1): 435 nm
- emission maximum (in C1COCCO1): 414 nm
- emission maximum (in CC#N): 447 nm
- emission maximum (in CCCCCC): 404 nm
- emission maximum (in CCCCOCCCC): 411 nm
- emission maximum (in CCN(CC)CC): 409 nm
- emission maximum (in CCOC(C)=O): 425 nm
- emission maximum (in CCOCC): 427 nm
- emission maximum (in CN(C)C=O): 447 nm
- emission maximum (in Cc1ccccc1): 413 nm
- emission maximum (in ClC(Cl)Cl): 427 nm
- emission maximum (in ClC=C(Cl)Cl): 417 nm
- emission maximum (in ClCCl): 432 nm

Structure (SMILES): CC1(C)c2ccccc2N(c2ccc(C(=C(C#N)C#N)c3ccc(N4c5ccccc5C(C)(C)c5ccccc54)cc3)cc2)c2ccccc21
- emission maximum (in Cc1ccccc1): 649 nm

Structure (SMILES): CCCCCCCCc1ccc(-c2c3cc(-c4cc(CCCCCCCC)c(-c5ccc(-c6sc(/C=C7\SC(SCC)=NC7=O)cc6CCCCCCCC)s5)s4)sc3c(-c3ccc(CCCCCCCC)s3)c3cc(-c4cc(CCCCCCCC)c(-c5ccc(-c6sc(/C=C7\SC(SCC)=NC7=O)cc6CCCCCCCC)s5)s4)sc23)s1
- emission maximum (in ClC(Cl)Cl): 653 nm

Structure (SMILES): O=C1C=CC2=Cc3ccccc3B(O)N12
- emission maximum (in CC#N): 412 nm
- emission maximum (in CO): 416 nm
- emission maximum (in CS(C)=O): 430 nm
- emission maximum (in ClC(Cl)Cl): 420 nm

Structure (SMILES): COc1cccc(-c2c3ccccc3c3n2[B-](F)(F)[N+]2=Cc4c5ccccc5c(-c5cccc(OC)c5)n4[B-](F)(F)[N+]2=C3)c1
- emission maximum (in CC#N): 596 nm
- emission maximum (in CCCCCC): 598 nm
- emission maximum (in CN(C)C=O): 603 nm
- emission maximum (in Cc1ccccc1): 608 nm
- emission maximum (in ClCCl): 602 nm

Structure (SMILES): Cc1ccc(-c2cnc3nn4ccccc4c3c2)cc1
- emission maximum (in C1CCOC1): 418 nm
